Experimental data published in patent US20260356851A1, “TRICYCLIC COMPOUNDS AND USES THEREOF” (HUTCHMED LIMITED, priority 2023, published 2026).

Tests used:
Assay type in all cases: cell-based
[1] = target: T1, pERK1/2 (Thr202/Tyr204), NCI-1H441 (KRAS G12V) (Homo sapiens, UniProt P01116, G12V); experiment: Assay of intracellular pERK1/2 (Thr202/Tyr204) phosphorylation in NCI-H441 cells (KRAS G12V); conditions: pERK1/2, 2 days, read-out: NCI-H441 (KRAS G12V) IC50
T1 construct: pERK1/2 HTRF read-out
Method in brief: (§1)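 HTRF detection of Thr202/Tyr204-phosphorylated ERK1/2 (665/615 nm ratio) in lysates from cells treated 2 days with serially 3-fold diluted compound.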

[2] = target: T2, pERK1/2 (Thr202/Tyr204), PANC-1 (KRAS G121D) (Homo sapiens, UniProt P01116, G12D); experiment: Assay of intracellular pERK1/2 (Thr202/Tyr204) phosphorylation in PANC-1 cells (KRAS G12D); conditions: pERK1/2, 2 days, read-out: PANC-1 (KRAS G12D) IC50
T2 construct: pERK1/2 HTRF read-out
Method in brief: as §1

[3] = target: T3, pERK1/2 (Thr202/Tyr204), NCI-1H358 (KRAS G12C) (Homo sapiens, UniProt P01116, G12C); experiment: Assay of intracellular pERK1/2 (Thr202/Tyr204) phosphorylation in NCI-H358 cells (KRAS G12C); conditions: pERK1/2, 2 days, read-out: NCI-H358 (KRAS G12C) IC50
T3 construct: pERK1/2 HTRF read-out
Method in brief: as §1

T2 sequence (P01116 1-188 isoform P01116-2 G12D): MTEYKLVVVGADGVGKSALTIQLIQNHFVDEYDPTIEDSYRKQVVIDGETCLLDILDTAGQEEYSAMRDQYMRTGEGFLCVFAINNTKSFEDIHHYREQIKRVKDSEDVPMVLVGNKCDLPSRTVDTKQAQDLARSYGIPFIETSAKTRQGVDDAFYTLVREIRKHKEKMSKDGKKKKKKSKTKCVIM
T3 sequence (P01116 1-188 isoform P01116-2 G12C): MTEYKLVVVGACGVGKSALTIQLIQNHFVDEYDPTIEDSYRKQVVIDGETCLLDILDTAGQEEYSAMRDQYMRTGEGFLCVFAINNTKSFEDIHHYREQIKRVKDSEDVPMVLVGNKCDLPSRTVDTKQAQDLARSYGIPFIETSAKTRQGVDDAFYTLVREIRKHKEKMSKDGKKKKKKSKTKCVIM
T1 sequence (P01116 1-188 isoform P01116-2 G12V): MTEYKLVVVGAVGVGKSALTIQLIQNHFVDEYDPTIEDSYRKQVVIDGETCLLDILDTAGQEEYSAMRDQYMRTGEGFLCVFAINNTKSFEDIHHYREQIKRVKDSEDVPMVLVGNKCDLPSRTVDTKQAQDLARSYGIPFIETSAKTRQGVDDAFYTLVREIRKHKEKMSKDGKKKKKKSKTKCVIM

CC(c1cccnc1N)N1CCOc2nc(-c3cc(N)c(F)cc3C(F)(F)F)c(F)c3nc(OC[C@@]45CCCN4C[C@H](F)C5)nc1c23 (single isomer, unassigned) [Compound 145, 3-((R or S)-1-(5-(5-amino-4-fluoro-2-(trifluoromethyl)phenyl)-4-fluoro-2-(((2R,7aS)-2-fluorotetrahydro-1H-pyrrolizin-7a(5H)-yl)methoxy)-8,9-dihydro-10H-7-oxa-1,3,6,10-tetraazacyclohepta[de]naphthalen-10-yl)ethyl)pyridin-2-amine]
IC50 [1]: 51 nM | IC50 [2]: > 100 nM | IC50 [3]: 14 nM

[2H]C1([2H])CC[C@@]2(C([2H])([2H])Oc3nc4c5c(nc(-c6cc(N)c(F)c(C)c6C(F)(F)F)c(F)c5n3)OCCN4[C@@H](C)c3cccnc3N)C[C@@H](F)CN12 (single isomer, unassigned) [Compound 125, 3-((R or S)-1-(5-(5-amino-4-fluoro-3-methyl-2-(trifluoromehtyl)phenyl)-4-fluoro-2-(((2R,7aS)-2-fluorotetrahydro-1H-pyrrolizin-7a(5H)-yl-5,5-d2)methoxy-d2)-8,9-dihydro-10H-7-oxa-1,3,6,10-tetraazacyclohepta[de]naphthalen-10-yl)ethyl)pyridin-2-amine]
IC50 [1]: 40 nM | IC50 [2]: 57 nM | IC50 [3]: 12 nM

CCc1c(F)ccc2cc(O)cc(-c3nc4c5c(nc(OC[C@@H]6C[C@@H](F)CN6C)nc5c3F)N(C(C)c3cccnc3N)[C@@H](C)CO4)c12 (stereo partly drawn) [Compound 290]
IC50 [1]: 0.3 nM | IC50 [2]: 0.2 nM | IC50 [3]: 0.2 nM

CC(c1cccnc1N)N1CCOc2nc(-c3c(C(F)(F)F)ccc4[nH]ncc34)c(F)c3nc(OC[C@@H]4CCN4CC(F)F)nc1c23 (stereo partly drawn) [Compound 25]
IC50 [1]: 14 nM | IC50 [2]: 593 nM | IC50 [3]: 7 nM

CCC(c1cccnc1N)N1CCOc2nc(-c3cc(N)c(F)c(F)c3C(F)(F)F)c(F)c3nc(OC[C@@]45CCCN4C[C@H](F)C5)nc1c23 (single isomer, unassigned) [Compound 216, 3-((R or S)-1-(5-(5-amino-3,4-difluoro-2-(trifluoromethyl)phenyl)-4-fluoro-2-(((2R,7aS)-2-fluorotetrahydro-1H-pyrrolizin-7a(5H)-yl)methoxy)-8,9-dihydro-10H-7-oxa-1,3,6,10-tetraazacyclohepta[de]naphthalen-10-yl)propyl)pyridin-2-amine]
IC50 [1]: 2 nM | IC50 [2]: 48 nM | IC50 [3]: 2 nM

Cc1c(F)c(N)cc(-c2nc3c4c(nc(OC[C@@]56CCCN5C[C@H](F)C6)nc4c2F)N(C(C)c2cccnc2N)[C@H](C)CO3)c1C(F)(F)F (single isomer, unassigned) [Compound 256, 3-((R or S)-1-((R)-5-(5-amino-4-fluoro-3-methyl-2-(trifluoromethyl)phenyl)-4-fluoro-2-(((2R,7aS)-2-fluorotetrahydro-1H-pyrrolizin-7a(5H)-yl)methoxy)-9-methyl-8,9-dihydro-10H-7-oxa-1,3,6,10-tetraazacyclohepta[de]naphthalen-10-yl)ethyl)pyridin-2-amine]
IC50 [1]: > 100 nM | IC50 [2]: > 100 nM | IC50 [3]: > 100 nM

[2H]C1([2H])CN(C(C)c2cccnc2N)c2nc(OC[C@@]34CCCN3C[C@H](F)C4)nc3c(F)c(-c4cc(N)cc(C)c4C(F)(F)F)nc(c23)O1 (single isomer, unassigned) [Compound 153, 3-((R or S)-1-(5-(5-amino-3-methyl-2-(trifluoromethyl)phenyl)-4-fluoro-2-(((2R,7aS)-2-fluorotetrahydro-1H-pyrrolizin-7a(5H)-yl)methoxy)-8,9-dihydro-10H-7-oxa-1,3,6,10-tetraazacyclohepta[de]naphthalen-10-yl-8,8-d2)ethyl)pyridin-2-amine]
IC50 [1]: 0.5 nM | IC50 [2]: 2 nM | IC50 [3]: 0.2 nM

Cc1c(C(F)(F)F)c(-c2cc3nc(OC[C@@]45CCCN4C[C@H](F)C5)nc4c3c(n2)OC[C@H](C)N4C(C)c2cccnc2N)c2c(C)n[nH]c2c1F (stereo partly drawn) [Compound 383]
IC50 [1]: 0.4 nM | IC50 [2]: 0.4 nM | IC50 [3]: 0.5 nM

[2H]C1([2H])CC[C@@]2(COc3nc4c5c(nc(-c6cc(N)c(F)c(C)c6C(F)(F)F)c(F)c5n3)OCCN4C(C)c3cccnc3N)C[C@@H](F)CN12 (stereo partly drawn) [Compound 150]
IC50 [1]: 0.3 nM | IC50 [2]: 1 nM | IC50 [3]: 0.2 nM

Cc1ccc2[nH]nc(C)c2c1-c1nc2c3c(nc(OC[C@@]45CCCN4C[C@H](F)C5)nc3c1F)N(C(C)c1cccnc1N)[C@@H](C)CO2 (stereo partly drawn) [Compound 319]
IC50 [1]: 1 nM | IC50 [2]: 10 nM | IC50 [3]: 0.9 nM

Cc1c(F)c(N)cc(-c2nc3c4c(nc(OC[C@@]56CCCN5C[C@H](F)C6)nc4c2F)N(C(C)c2cc(F)cnc2N)CCO3)c1C(F)(F)F (stereo partly drawn) [Compound 177]
IC50 [1]: 2 nM | IC50 [2]: 11 nM | IC50 [3]: 0.7 nM

CCc1c(F)ccc2cc(O)cc(-c3nc4c5c(nc(OC[C@@]67CCCN6C[C@H](F)C7)nc5c3F)N(C(C)c3cccnc3NC(=O)[C@H](C)N)[C@@H](C)CO4)c12 (stereo partly drawn) [Compound 300]
IC50 [1]: 2 nM | IC50 [2]: 0.5 nM | IC50 [3]: 0.6 nM

CC(c1cccnc1N)N1c2nc(OC[C@@H]3C[C@@H](F)CN3C)nc3c(F)c(-c4cc(N)c(F)c(Cl)c4C(F)(F)F)nc(c23)OC[C@@H]1C (stereo partly drawn) [Compound 289]
IC50 [1]: 1 nM | IC50 [2]: 4 nM | IC50 [3]: 0.3 nM

Cc1c(F)c(N)cc(-c2nc3c4c(nc(OC[C@@]56CCCN5C[C@H](F)C6)nc4c2F)N([C@@H](C)c2cc(F)cnc2N)[C@@H](C)CO3)c1C(F)(F)F [Compound 366]
IC50 [1]: > 100 nM | IC50 [2]: > 100 nM | IC50 [3]: > 100 nM

CNc1ncccc1C(C)N1CCOc2nc(-c3cc(N)c(F)c(C)c3C(F)(F)F)c(F)c3nc(OC[C@@]45CCCN4C[C@H](F)C5)nc1c23 (single isomer, unassigned) [Compound 264, 3-((R or S)-1-(5-(5-amino-4-fluoro-3-methyl-2-(trifluoromethyl)phenyl)-4-fluoro-2-(((2R,7aS)-2-fluorotetrahydro-1H-pyrrolizin-7a(5H)-yl)methoxy)-8,9-dihydro-10H-7-oxa-1,3,6,10-tetraazacyclohepta[de]naphthalen-10-yl)ethyl)-N-methylpyridin-2-amine]
IC50 [1]: > 100 nM | IC50 [2]: > 100 nM | IC50 [3]: 93 nM

CC(c1cccnc1N)N1CCOc2nc(-c3cc(N)cc(Cl)c3C(F)(F)F)c(F)c3nc(OC[C@@H]4CCCN4C)nc1c23 (single isomer, unassigned) [Compound 99, 3-((R or S)-1-(5-(5-amino-3-chloro-2-(trifluoromethyl)phenyl)-4-fluoro-2-(((S)-1-methylpyrrolidin-2-yl)methoxy)-8,9-dihydro-10H-7-oxa-1,3,6,10-tetraazacyclohepta[de]naphthalen-10-yl)ethyl)pyridin-2-amine]
IC50 [1]: 33 nM | IC50 [2]: > 100 nM | IC50 [3]: 27 nM

[2H]C1([2H])CC[C@@]2(COc3nc4c5c(nc(-c6cc(N)cc(C)c6C(F)(F)F)c(F)c5n3)OCCN4C(C)c3cccnc3N)C[C@@H](F)CN12 (stereo partly drawn) [Compound 231]
IC50 [1]: 0.2 nM | IC50 [2]: 0.8 nM | IC50 [3]: 0.2 nM

C[C@H](c1cccnc1N)N1c2nc(OC[C@@]34CCCN3C[C@H](F)C4)nc3c(F)c(-c4c5ccccc5cc5[nH]ncc45)nc(c23)O[C@@H]2CCC[C@@H]21 [Compound 399]
IC50 [1]: 57 nM | IC50 [2]: 403 nM | IC50 [3]: 65 nM

CC(c1cccnc1N)N1c2nc(OC[C@@]34CCCN3C[C@H](F)C4)nc3c(F)c(-c4cc(N)cc(Cl)c4C4CC4)nc(c23)OC[C@@H]1C (stereo partly drawn) [Compound 305]
IC50 [1]: 0.6 nM | IC50 [2]: 0.3 nM | IC50 [3]: 0.3 nM

CC(c1cccnc1N)N1CCOc2nc(-c3cc(O)cc4ccc(F)c(F)c34)c(F)c3nc(OC[C@@H]4CCN4CC(F)F)nc1c23 (stereo partly drawn) [Compound 8]
IC50 [1]: 2 nM | IC50 [2]: 113 nM | IC50 [3]: 1 nM

CC(c1cccnc1N)N1CCOc2nc(-c3cc(N)ccc3C(F)(F)F)c(F)c3nc(OC[C@@]45CCCN4C[C@H](F)C5)nc1c23 (stereo partly drawn) [Compound 18]
IC50 [1]: 3 nM | IC50 [2]: 54 nM | IC50 [3]: 1 nM

CCC(c1cccnc1N)N1CCOc2nc(-c3cc(N)c(F)c(Cl)c3C(F)(F)F)c(F)c3nc(OC[C@@]45CCCN4C[C@H](F)C5)nc1c23 (single isomer, unassigned) [Compound 214, 3-((R or S)-1-(5-(5-amino-3-chloro-4-fluoro-2-(trifluoromethyl)phenyl)-4-fluoro-2-(((2R,7aS)-2-fluorotetrahydro-1H-pyrrolizin-7a(5H)-yl)methoxy)-8,9-dihydro-10H-7-oxa-1,3,6,10-tetraazacyclohepta[de]naphthalen-10-yl)propyl)pyridin-2-amine]
IC50 [1]: 0.3 nM | IC50 [2]: 4 nM | IC50 [3]: 0.2 nM

CC(c1cccnc1N)N1c2nc(OC[C@@]34CCCN3C[C@H](F)C4)nc3c(F)c(-c4c5c(cc6[nH]ncc46)CCC5=O)nc(c23)OC[C@@H]1C (single isomer, unassigned) [Compound 373]
IC50 [1]: 25 nM | IC50 [2]: 41 nM | IC50 [3]: 14 nM

C#Cc1ccc2[nH]ncc2c1-c1nc2c3c(nc(OC[C@@]45CCCN4C[C@H](F)C5)nc3c1F)N(C(C)c1cccnc1N)CCO2 (stereo partly drawn) [Compound 60]
IC50 [1]: 806 nM | IC50 [2]: > 1000 nM | IC50 [3]: 518 nM

CC(c1cccnc1N)N1CCOc2nc(-c3cc(O)cc4ccc(F)c(F)c34)c(F)c3nc(OCC4(CN(C)C)CC4)nc1c23 (stereo not drawn) [Compound 7]
IC50 [1]: 33 nM | IC50 [2]: 238 nM | IC50 [3]: 8 nM
